Consider twelve molecules from patent US20040024231A1, “17Alpha fluoroalkyl steroids, method for producing the same and pharmaceutical compositions containing said compounds” (priority 2000, published 2004).

The assay addresses T1, androgen receptors (Homo sapiens, UniProt P10275).
T1 sequence (P10275 1-920): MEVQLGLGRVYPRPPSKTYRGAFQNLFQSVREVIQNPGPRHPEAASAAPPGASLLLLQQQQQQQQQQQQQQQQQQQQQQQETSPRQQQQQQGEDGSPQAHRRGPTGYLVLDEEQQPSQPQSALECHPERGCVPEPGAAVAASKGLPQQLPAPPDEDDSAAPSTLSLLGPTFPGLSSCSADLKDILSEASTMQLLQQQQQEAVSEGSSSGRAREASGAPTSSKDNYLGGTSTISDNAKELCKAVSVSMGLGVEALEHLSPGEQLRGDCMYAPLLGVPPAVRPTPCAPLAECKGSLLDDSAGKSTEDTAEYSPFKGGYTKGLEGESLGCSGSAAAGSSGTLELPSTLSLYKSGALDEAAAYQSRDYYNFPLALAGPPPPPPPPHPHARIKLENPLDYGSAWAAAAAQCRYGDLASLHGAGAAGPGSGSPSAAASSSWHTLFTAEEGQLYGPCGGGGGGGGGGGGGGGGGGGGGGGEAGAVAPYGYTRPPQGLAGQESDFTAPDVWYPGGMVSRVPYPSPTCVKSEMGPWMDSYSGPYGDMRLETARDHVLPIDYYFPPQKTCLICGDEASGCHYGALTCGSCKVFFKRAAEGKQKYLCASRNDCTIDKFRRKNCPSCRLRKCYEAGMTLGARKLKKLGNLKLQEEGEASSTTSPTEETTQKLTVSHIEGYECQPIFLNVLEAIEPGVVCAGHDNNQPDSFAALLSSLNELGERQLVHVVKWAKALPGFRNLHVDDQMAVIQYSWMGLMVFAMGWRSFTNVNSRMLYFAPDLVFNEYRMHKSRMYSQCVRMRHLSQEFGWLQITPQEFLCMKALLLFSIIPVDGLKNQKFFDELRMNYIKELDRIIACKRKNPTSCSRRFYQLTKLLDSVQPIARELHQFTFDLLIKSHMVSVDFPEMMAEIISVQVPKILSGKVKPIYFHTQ
As to the kind of experiment: receptor binding affinities to the androgen receptors (RBA). The conditions noted are these: receptor binding affinity to the androgen receptors; R 1881 (Methyltrienolone) = 100.
As for `CC12CCC3C4CCC(=O)C(O)=C4CCC3C1CCC2(O)C(F)(F)C(F)(F)F` (stereo not drawn) [17β,4-Dihydroxy-17α-pentafluoroethyl-estr-4-en-3-one], the RBA is 20%. The molecule `CC12CCC3C4CCC(=O)C(O)=C4CCC3C1CCC2(O)C(F)(F)F` (stereo not drawn) [17β,4-Dihydroxy-17α-trifluoromethyl-estr-4-en-3-one] displayed an RBA of 15%. With `CC12CCC(=O)C=C1CCC1C2C(O)CC2(C)C1CCC2(O)C(F)(F)F` (stereo not drawn) [17β,11β-Dihydroxy-17α-trifluoromethyl-androst-4-en-3-one], the RBA is recorded as 8.6%. Molecule `CC12CCC3C4CCC(=O)C(Cl)=C4CCC3C1CCC2(O)C(F)(F)C(F)(F)F` (stereo not drawn) [17β-Hydroxy-17α-pentafluoroethyl-4-chloro-estr-4-en-3-one] gave an RBA of 27%.

Molecule `CC1CC2=CC(=O)CCC2C2CCC3(C)C(CCC3(O)C(F)(F)C(F)(F)F)C12` (stereo not drawn) [17β-Hydroxy-17α-pentafluoroethyl-7α-methyl-estr-4-en-3-one] gave an RBA of 34%. As for `CC12CCC3C4CCC(=O)C=C4CCC3C1CCC2(O)C(F)(F)C(F)(F)F` (stereo not drawn) [17β-Hydroxy-17α-pentafluoroethyl-estr-4-en-3-one], the RBA is given as 21%.

On to `CC12CCC(=O)C(Cl)=C1CCC1C2CCC2(C)C1CCC2(O)C(F)(F)F` (stereo not drawn) [17β-Hydroxy-17α-trifluoromethyl-4-chloro-androst-4-en-3-one], for which the RBA was determined as 20%. `CC12CCC3C4CCC(=O)C(Cl)=C4CCC3C1CCC2(O)C(F)(F)F` (stereo not drawn) [17β-Hydroxy-17α-trifluoromethyl-4-chloro-estr-4-en-3-one]: the RBA was 41%. Turning to `CC1CC2=CC(=O)CCC2(C)C2CCC3(C)C(CCC3(O)C(F)(F)F)C12` (stereo not drawn) [17β-Hydroxy-17α-trifluoromethyl-7α-methyl-androst-4-en-3-one], the RBA was 30%. In the case of `CC1CC2=CC(=O)CCC2C2CCC3(C)C(CCC3(O)C(F)(F)F)C12` (stereo not drawn) [17β-Hydroxy-17α-trifluoromethyl-7α-methyl-estr-4-en-3-one], the RBA was found to be 40%. The molecule `C[C@]12CCC(=O)C=C1CC[C@@H]1[C@@H]2CC[C@@]2(C)[C@H]1CC[C@@]2(O)C(F)(F)F` [17β-Hydroxy-17α-trifluoromethyl-androst-4-en-3-one] showed an RBA of 9.4%. The figure for `C[C@]1(O)CC[C@H]2[C@@H]3CCC4=CC(=O)CCC4=C3C=C[C@@]21C` [R 1881 (Methyltrienolone), Methyltrienolone, reference compound] is 100%.
